This is an account of results in ChEMBL document CHEMBL1914288, “Design and synthesis of biotinylated DHMEQ for direct identification of its target NF-κB components” (Bioorg Med Chem Lett, 2011).

Data set [1] concerns RAW264.7. The data set is described as follows: Inhibition of LPS-induced nitric oxide production in mouse RAW264.7 cells at 100 ug/mL preincubated for 1 hr prior LPS stimulation measured after 24 hrs by Griess reaction relative to (-)-DHMEQ. Format: functional, cell-based. A general note: Griess reagent forms a coloured azo dye with nitrite.
The test system of data set [2] is Transcription factor p65 (Homo sapiens), Q04206 [C38S]. The data set is described as follows: Binding affinity to recombinant NF-kappaB transcription factor p65 subunit C38S mutant at 4 equiv mol concentration after 1 hr by MALDI-TOF MS analysis.
For data set [3], the target named is Transcription factor p65 (Homo sapiens) (UniProt Q04206). The data set is described as follows: Binding affinity to recombinant NF-kappaB transcription factor p65 subunit at 4 equiv mol concentration after 1 hr by MALDI-TOF MS analysis.
The nature of data set [4]: Stability of the compound in DMSO for 4 weeks. It is filed as physicochemical. The conditions noted are these: 672 h.
The test system of data set [5] is RAW264.7. The data set is described as follows: Inhibition of LPS-induced nitric oxide production in mouse RAW264.7 cells preincubated for 1 hr prior LPS stimulation measured after 24 hrs by Griess reaction. Format: functional, cell-based.
Data set [6] relates to RAW264.7. The data set can be described thus: Inhibition of NF-kappaB activation in LPS-stimulated mouse RAW264.7 cells assessed as DNA binding using 32P-labeled oligonucleotide with the high affinity site 5'-AGTTGAGGGGACTTTCCCAGGC-3' at 3 ug/mL after 30 mins by EMSA. It is filed as cell-based. For orientation: A gel shift assay detects complexes by their altered migration in electrophoresis.

In data set [7] the test system is RAW264.7. The data set is described as follows: Cytotoxicity against mouse RAW264.7 cells at 10 ug/mL after 24 hrs by MTT assay. The following applies: raw264.7, 24 h. Format: cell-based. In general terms: Tetrazolium assays rely on reduction of a dye to a coloured formazan, in cell work by metabolically active cells.
Data set [8] is described as follows: Stability of the compound under neutral conditions. It is filed as physicochemical.

The source made the active and inactive calls. The rule behind the calls is not given here.

Chain of Transcription factor p65 (Homo sapiens) (Q04206 whole entry): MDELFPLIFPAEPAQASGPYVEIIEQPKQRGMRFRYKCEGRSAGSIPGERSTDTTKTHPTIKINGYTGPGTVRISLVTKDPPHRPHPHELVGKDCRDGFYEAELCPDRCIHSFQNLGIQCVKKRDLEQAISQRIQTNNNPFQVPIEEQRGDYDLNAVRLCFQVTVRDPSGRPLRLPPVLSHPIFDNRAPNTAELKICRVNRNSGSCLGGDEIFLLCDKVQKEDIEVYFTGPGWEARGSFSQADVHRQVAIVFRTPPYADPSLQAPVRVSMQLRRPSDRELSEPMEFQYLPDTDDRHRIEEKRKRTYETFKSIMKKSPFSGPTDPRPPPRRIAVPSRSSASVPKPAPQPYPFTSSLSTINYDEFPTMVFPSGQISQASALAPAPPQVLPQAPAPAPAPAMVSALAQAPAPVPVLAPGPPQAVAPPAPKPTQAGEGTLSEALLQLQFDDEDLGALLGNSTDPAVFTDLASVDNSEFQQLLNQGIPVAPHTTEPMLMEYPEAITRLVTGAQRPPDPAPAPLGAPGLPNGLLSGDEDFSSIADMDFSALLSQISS
Chain of Transcription factor p65 (Homo sapiens), Q04206 [C38S] (Q04206 whole entry C38S): as the sequence (Q04206 whole entry) above, with C38S counted along it

On to `O=C(/C=C/COc1ccccc1C(=O)NC1=CC(=O)[C@H]2O[C@H]2[C@H]1O)NCCOCCOCCNC(=O)CCCC[C@@H]1SC[C@@H]2NC(=O)N[C@@H]21` (mixture of isomers), for which, in the data set with RAW264.7 [1], the inhibition result was “inactive”. Besides, the result in data set [2] was inactive. Besides, in data set [3], the outcome was Active. For the same molecule, the Stability entry in data set [4] is on record as “Stable”.
In the case of `C=CCOc1ccccc1C(=O)NC1=CC(=O)[C@H]2O[C@H]2[C@H]1O` (racemic), the inhibition entry in the data set on RAW264.7 [5] is “Dose-dependent effect”. Also, in the data set on RAW264.7 [6], the inhibition entry was “Active”. In addition, in the data set with RAW264.7 [7], the Activity entry is “Non-toxic”.
As for `O=C(NC1=CC(=O)[C@H]2O[C@H]2[C@H]1O)c1ccccc1O` [DEHYDROXYMETHYLEPOXYQUINOMICIN], in data set [8], the Stability entry is listed as “Stable”.
